In publication PMC9127750, “Structure-based design of CDC42 effector interaction inhibitors for the treatment of cancer” (Cell reports, 2022):
Where “and” joins values, the source holds several entries; their conditions need not be identical. Equal entries are not always repeated.

Test system: WM3248 melanoma cells, 486 antibodies
Test: Reverse phase protein arrays (RPPA)
Type: cell-based, Human
Source text: Pellets were snap frozen in liquid nitrogen and shipped to MD Anderson Cancer Center core RPPA facility for RPPA analysis (Table S5). Three biological replicates for each sample were generated.
Nomenclatures on the RPPA heatmaps: name_of_antibody.species_of_antibody.status_of_antibody. V - antibody validated; C - validation of antibody in progress; Q - antibody nonspecific; E – under evaluation; antibodies raised in M - mouse, G - goat, R - rabbit, or T - rat.

[1] = Norm_20, replicates 1-3 and Average, relative to Norm_0

With CN(C)c1cccc(Nc2cc(-c3ccccc3)nc(C3CCNCC3)n2)c1 [ARN22089, N1,N1-dimethyl-N3-(6-phenyl-2-(piperidin-4-yl)pyrimidin-4-yl)benzene-1,3-diamine] the “Bax.R.V RPPA signal, normalized” value [1] was 1.116 and 1.001 and 1.099, the “Bcl2.R.C RPPA signal, normalized” value [1] was 1.192 and 1.263 and 1.147 and 1.201 and the “Bcl.xL.R.V RPPA signal, normalized” value [1] was 1.010 and 1.055 and 1.349 and 1.138. The “Beclin.R.C RPPA signal, normalized” value [1] was 0.940 and 1.021 and 1.001, the “BiP.GRP78.M.C RPPA signal, normalized” value [1] was 0.957 and 0.997 and 0.968 and the “Bid.R.C RPPA signal, normalized” value [1] was 1.024 and 0.874 and 0.875 and 0.925. For the same compound, the “Bim.R.V RPPA signal, normalized” value [1] was 1.050 and 0.910 and 0.906 and 0.955, the “X4E.BP1.R.V RPPA signal, normalized” value [1] was 0.857 and 0.934 and 2.342 and 1.377 and the “X4E.BP1_pS65.R.V RPPA signal, normalized” value [1] was 0.791 and 0.833 and 1.063 and 0.895. For the same compound, the “X4E.BP1_pT37_T46.R.V RPPA signal, normalized” value [1] was 0.867 and 0.753 and 1.126 and 0.915, the “X14.3.3.zeta.R.V RPPA signal, normalized” value [1] was 0.941 and 0.920 and 0.970 and 0.944 and the “X14.3.3βR.V RPPA signal, normalized” value [1] was 1.101 and 1.160 and 0.888 and 1.050. For the same compound, the “X14.3.3εM.C RPPA signal, normalized” value [1] was 0.855 and 0.892 and 1.081 and 0.943, the “X53BP1.R.V RPPA signal, normalized” value [1] was 1.138 and 0.986 and 1.047 and 1.057 and the “b.Actin.R.C RPPA signal, normalized” value [1] was 1.058 and 1.299 and 1.110 and 1.155. The “b.Catenin.R.V RPPA signal, normalized” value [1] was 0.975 and 0.858 and 1.031 and 0.954, the “b.Catenin_pT41_S45.R.V RPPA signal, normalized” value [1] was 1.047 and 1.076 and the “c.Abl.R.V RPPA signal, normalized” value [1] was 1.061 and 1.026 and 1.186. For the same compound, the “c.Abl_pY412.R.C RPPA signal, normalized” value [1] was 1.034 and 0.935 and 1.009 and 0.993, the “c.IAP2.R.C RPPA signal, normalized” value [1] was 1.049 and 1.145 and 1.104 and 1.100 and the C.Raf.R.C normalized signal (Norm_20 Average) was 0.952. For the same compound, the CA9.R.C normalized signal (Norm_20 Average) was 0.890, the CD2.M.C normalized signal (Norm_20 Average) was 0.871 and the CD4.R.V normalized signal (Norm_20 Average) was 1.005. It also gave a CD5.M.C normalized signal (Norm_20 Average) of 0.944, a CD20.R.C normalized signal (Norm_20 Average) of 1.356 and a CD26.R.V normalized signal (Norm_20 Average) of 1.108. It also gave a CD29.M.V normalized signal (Norm_20 Average) of 0.892, a CD31.M.V normalized signal (Norm_20 Average) of 0.916 and a CD44.R.C normalized signal (Norm_20 Average) of 1.001. For the same compound, the CD45.M.V normalized signal (Norm_20 Average) was 0.902, the CD49b.M.V normalized signal (Norm_20 Average) was 1.012 and the CD68.M.C normalized signal (Norm_20 Average) was 0.968. It also gave a CD74.M.V normalized signal (Norm_20 Average) of 0.926, a CD134.R.V normalized signal (Norm_20 Average) of 0.946 and a CD171.M.V normalized signal (Norm_20 Average) of 0.712. It also gave a CDK1_pT14.R.C normalized signal (Norm_20 Average) of 1.008, a CDK9.R.V normalized signal (Norm_20 Average) of 0.932 and a CDKN2A.R.C normalized signal (Norm_20 Average) of 0.921. The CDT1.R.V normalized signal (Norm_20 Average) was 0.857, the CENP.A.R.V normalized signal (Norm_20 Average) was 1.525 and the CRABP1.R.C normalized signal (Norm_20 Average) was 0.968. It also gave a CRABP2.R.V normalized signal (Norm_20 Average) of 0.841, a CREB_pS133.R.C normalized signal (Norm_20 Average) of 1.190 and a CSK.R.C normalized signal (Norm_20 Average) of 0.923. It also gave a Calnexin.R.V normalized signal (Norm_20 Average) of 0.926, a Caspase.3.cleaved.R.C normalized signal (Norm_20 Average) of 1.013 and a Caspase.7.cleaved..R.C normalized signal (Norm_20 Average) of 1.013. It also gave a Caspase.8.M.Q normalized signal (Norm_20 Average) of 0.961, a Caspase.8.cleaved.R.C normalized signal (Norm_20 Average) of 0.957 and a Caveolin.1.R.V normalized signal (Norm_20 Average) of 0.866. The Cdc6.R.V normalized signal (Norm_20 Average) was 0.851, the Cdc42.R.C normalized signal (Norm_20 Average) was 0.996 and the Chk1.M.C normalized signal (Norm_20 Average) was 0.786. The Chk1_pS345.R.C normalized signal (Norm_20 Average) was 1.170, the Chk2.M.V normalized signal (Norm_20 Average) was 0.875 and the Chk2_pT68.R.C normalized signal (Norm_20 Average) was 1.128. The Claudin.7.R.V normalized signal (Norm_20 Average) was 1.226, the Collagen.VI.R.V normalized signal (Norm_20 Average) was 1.013 and the Complex.II.Subunit.M.V normalized signal (Norm_20 Average) was 1.002. It also gave a Coup.TFII.R.C normalized signal (Norm_20 Average) of 1.005, a Cox2.R.C normalized signal (Norm_20 Average) of 1.349 and a Cox.IV.R.V normalized signal (Norm_20 Average) of 0.992. The Creb.R.C normalized signal (Norm_20 Average) was 1.053, the CtIP.R.V normalized signal (Norm_20 Average) was 0.962 and the Cyclin.B1.R.V normalized signal (Norm_20 Average) was 0.968. The Cyclin.D1.R.C normalized signal (Norm_20 Average) was 0.986, the Cyclin.D3.M.V normalized signal (Norm_20 Average) was 0.749 and the Cyclin.E1.R.V normalized signal (Norm_20 Average) was 0.902. It also gave a Cyclophilin.F.M.V normalized signal (Norm_20 Average) of 0.934, a D.a.Tubulin.R.V normalized signal (Norm_20 Average) of 0.990 and a DAPK1_pS308.M.C normalized signal (Norm_20 Average) of 2.076. For the same compound, the DAPK2.R.C normalized signal (Norm_20 Average) was 1.013, the DDB.1.R.V normalized signal (Norm_20 Average) was 0.922 and the DDR1.R.V normalized signal (Norm_20 Average) was 0.996. For the same compound, the DDR1_pY513.R.C normalized signal (Norm_20 Average) was 1.082, the DJ1.R.V normalized signal (Norm_20 Average) was 0.929 and the DM.Histone.H3.R.V normalized signal (Norm_20 Average) was 1.963. It also gave a DM.K9.Histone.H3.M.V normalized signal (Norm_20 Average) of 1.372, a DNA.Ligase.IV.R.C normalized signal (Norm_20 Average) of 0.924 and a DNA_POLG.R.V normalized signal (Norm_20 Average) of 1.084.
